# Measurements reported in patent publication US8507533B2, “Glucagon receptor modulators” (Pfizer Inc., priority 2011, dated 2013).
# Target: human glucagon receptor (Homo sapiens (Human), UniProt P47871)
# Test: Glucagon cAMP Assay (Cisbio cAMP detection)
# Assay type: cell-based
# Conditions: CHOK1 cells stably transfected with the human glucagon receptor; block of glucagon induced cAMP production; Kb by modified Cheng-Prusoff equation
# Description: The Cisbio cAMP detection assay is used to determine the ability of punitive glucagon antagonist to block glucagon induced cAMP production. Potential glucagon antagonists are re-suspended and diluted in 100% DMSO. Prior to use in the Glucagon cAMP assay 100×DMSO compound stocks are diluted 20× with DMEM-F12 media (Invitrogen) containing either 0.1% or 4% BSA. […] 2 μls of 5% DMSO or known glucagon antagonist are added to each plate to define the assay window. CHOK1 cells stably transfected with the human glucagon receptor are removed from culture flasks with cell dissociation buffer. Cell pellets are re-suspended, at a concentration of 8.3e^5 cells/ml in DMEM-F12 with or without 4% BSA and 200 uM IBMX. 6 μls of cell suspensions are added to the assay plates. Plates are incubated for 20 min at room temperature prior to the addition of a 100 μM challenge dose of glucagon. On a separate plate glucagon dose response curves are run to determine the EC50 of glucagon. After a 30 min room temperature incubation the reaction is terminated by the addition of lysis buffer containing the cAMP detection reagents. Plates are incubated for an additional 60 min at room temperature prior to being read on the Perkin Elmer fluorescent plate reader. Raw is converted to nM of cAMP produced based on a cAMP standard curve. Converted data is then analyzed using the Pfizer data analysis program. IC50 values are determined from the generated sigmoidal dose response curves. Kb values are calculated using a modified Cheng-Prusoff equation. N is the number of times the compound was assayed.
# human glucagon receptor, sequence (P47871 26-477): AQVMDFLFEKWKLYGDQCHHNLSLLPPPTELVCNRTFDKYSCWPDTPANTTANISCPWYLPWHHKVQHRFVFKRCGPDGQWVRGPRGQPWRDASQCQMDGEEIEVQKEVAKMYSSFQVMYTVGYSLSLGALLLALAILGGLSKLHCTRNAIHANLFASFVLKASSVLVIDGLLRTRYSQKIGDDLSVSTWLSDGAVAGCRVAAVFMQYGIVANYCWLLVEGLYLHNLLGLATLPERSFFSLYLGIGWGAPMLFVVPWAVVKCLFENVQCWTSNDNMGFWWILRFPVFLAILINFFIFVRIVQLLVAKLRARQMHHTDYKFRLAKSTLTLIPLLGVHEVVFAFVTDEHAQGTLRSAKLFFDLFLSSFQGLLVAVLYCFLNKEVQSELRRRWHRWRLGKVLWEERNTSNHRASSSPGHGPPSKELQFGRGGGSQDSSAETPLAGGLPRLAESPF
row,Kb [nM],Compound
1,32.8,"O=C(O)CCNC(=O)c1ccc(C(Nc2ccc(-n3cc(C(F)(F)F)cn3)nc2)C2CCCC2)cc1 (single isomer, unassigned) [Example 95, 3-(4-(cyclopentyl(6-(4-(trifluoromethyl)-1H-pyrazol-1-yl)pyridine-3-ylamino)methyl)benzamido)propanoic acid]"
2,15500,"CCCC(Nc1ccc(-n2cnc(C(F)(F)F)c2)nc1)c1ccc(C(=O)NCCC(=O)O)cc1 (single isomer, unassigned; isomer 1) [Example 10, 3-(4-(1-(6-(4-(trifluoromethyl)-1H-imidazol-1-yl)yridine-3-ylamino)butyl)benzamido)propanoic acid, Isomer 1]"
3,1710,"CCCCc1cn(-c2ccc(OC(CCC)c3ccc(C(=O)NCCC(=O)O)cc3)cc2)cn1 (racemic) [Example 34, (+/−)-3-(4-(1-(4-(4-butyl-1H-imidazol-1-yl)phenoxy)butyl)benzamido)propanoic acid]"
4,57.5,"O=C(O)CCNC(=O)c1ccc(C(Nc2ccc(-n3cc(C(F)(F)F)cn3)nc2)C2CCCC2)cc1 (racemic) [Example 94, (+/−)-3-(4-(cyclopentyl(6-(4-(trifluoromethyl)-1H-pyrazol-1-yl)pyridine-3-ylamino)methyl)benzamido)propanoic acid]"
5,612,"CCCC(Nc1ccc(-n2cnc(C(F)(F)F)c2)nc1)c1ccc(C(=O)NCCC(=O)O)cc1 (single isomer, unassigned; isomer 2) [Example 11, 3-(4-(1-(6-(4-(trifluoromethyl)-1H-imidazol-1-yl)yridine-3-ylamino)butyl)benzamido)propanoic acid, Isomer 2]"
6,75,CCCC(Oc1ccc(-n2cc(-c3ccccc3)cn2)nc1)c1ccc(C(=O)NCCC(=O)O)cc1 (centres unmarked) [Example 133]
7,871,"O=C(O)CCNC(=O)c1ccc(C(Nc2ccc(-n3cc(C(F)(F)F)cn3)nc2)C2CCCC2)cc1 (single isomer, unassigned) [Example 96, 3-(4-(cyclopentyl(6-(4-(trifluoromethyl)-1H-pyrazol-1-yl)pyridine-3-ylamino)methyl)benzamido)propanoic acid]"
8,376,O=C(O)CCNC(=O)c1ccc(NC(c2ccc(-n3cc(C(F)(F)F)cn3)cc2)C2CCCCC2)nc1 (racemic) [Example 99]
9,1820,"CCCC(Oc1ccc(-n2cc(C)c(C#N)c2C)cc1)c1ccc(C(=O)NCCC(=O)O)cc1 (racemic) [Example 36, (+/−)-3-(4-(1-(4-(3-cyano-2,4-dimethyl-1H-pyrrol-1-yl)phenoxy)butyl)benzamido)propanoic acid]"
10,2460,"CCCC(Oc1ccc(-n2cc(C)c(C)n2)cc1)c1ccc(C(=O)NCCC(=O)O)cc1 (racemic) [Example 39, (+/−)-3-(4-(1-(4-(3,4-dimethyl-1H-pyrazol-1-yl)phenoxy)butyl)benzamido)propanoic acid]"
11,3350,"CCCC(Oc1ccc(-n2nc(C)cc2C)cc1)c1ccc(C(=O)NCCC(=O)O)cc1 (racemic) [Example 45, (+/−)-3-(4-(1-(4-(3,5-dimethyl-1H-pyrazol-1-yl)phenoxy)butyl)benzamido)propanoic acid]"
12,1560,"CCCC(Oc1ccc(-c2cnn(CCC)c2)cc1)c1ccc(C(=O)NCCC(=O)O)cc1 (racemic) [Example 50, (+/−)-3-(4-(1-(4-(1-propyl-1H-pyrazol-4-yl)phenoxy)butyl)benzamido)propanoic acid]"
13,3720,"CCCC(Oc1ccc(-c2cnn(C)c2C)cc1)c1ccc(C(=O)NCCC(=O)O)cc1 (racemic) [Example 55, (+/−)-3-(4-(1-(4-(1,5-dimethyl-1H-pyrazol-4-yl)phenoxy)butyl)benzamido)propanoic acid]"
14,1500,"CCCC(Nc1ccc(-n2cnc(C(F)(F)F)c2)c(C)c1)c1ccc(C(=O)NCCC(=O)O)cc1 (racemic) [Example 1, (+/−)-3-(4-(1-(3-methyl-4-(4-(trifluoromethyl)-1H-imidazol-1-yl)phenylamino)butyl)benzamido)propanoic acid]"
15,8150,"CCCCc1nccn1-c1ccc(OC(CCC)c2ccc(C(=O)NCCC(=O)O)cc2)cc1 (racemic) [Example 48, (+/−)-3-(4-(1-(4-(2-butyl-1H-imidazol-1-yl)phenoxy)butyl)benzamido)propanoic acid]"
16,1410,"CCCC(Oc1ccc(-n2nccn2)cc1)c1ccc(C(=O)NCCC(=O)O)cc1 (racemic) [Example 30, (+/−)-3-(4-(1-(4-(2H-1,2,3-triazol-2-yl)phenoxy)butyl)benzamido)propanoic acid]"

row,Kb [nM],Compound
1,7710,"CCCC(Oc1ccc(-n2cc(C(F)(F)F)nc2C)cc1)c1ccc(C(=O)NCCC(=O)O)cc1 (racemic) [Example 75, (+/−)-3-(4-(1-(4-(2-methyl-4-(trifluoromethyl)-1H-imidazol-1-yl)phenoxy)butyl)benzamido)propanoic acid]"
2,2910,"CCCC(Oc1ccc(-n2cnc(Cl)c2C)cc1)c1ccc(C(=O)NCCC(=O)O)cc1 (racemic) [Example 43, (+/−)-3-(4-(1-(4-(4-chloro-5-methyl-1H-imidazol-1-yl)phenoxy)butyl)benzamido)propanoic acid]"
3,800,"CCCC(Oc1ccc(-n2cc(SC)cn2)cc1)c1ccc(C(=O)NCCC(=O)O)cc1 (racemic) [Example 20, (+/−)-3-(4-(1-(4-(4-(methylthio)-1H-pyrazol-1-yl)phenoxy)butyl)benzamido)propanoic acid]"
4,572,"CCCC(Nc1ccc(-n2cnc(C(F)(F)F)c2)nc1)c1ccc(C(=O)NCCC(=O)O)cc1 (racemic) [Example 9, (+/−)-3-(4-(1-(6-(4-(trifluoromethyl)-1H-imidazol-1-yl)pyridine-3-ylamino)butyl)benzamido)propanoic acid]"
5,227,"Cc1cc(-n2cc(C(F)(F)F)cn2)ccc1C(Nc1ccc(C(=O)NCCC(=O)O)cn1)C1CCCCC1 (single isomer, unassigned) [Example 117, 3-(6-(cyclohexyl(2-methyl-4-(4-(trifluoromethyl)-1H-pyrazol-1-yl)phenyl)methylamino)nicotinamido)propanoic acid]"
6,4370,"CCCC(Oc1ccc(-c2cn[nH]c2)cc1)c1ccc(C(=O)NCCC(=O)O)cc1 (racemic) [Example 56, (+/−)-3-(4-(1-(4-(1H-pyrazol-4-yl)phenoxy)butyl)benzamido)propanoic acid]"
7,1020,"Cc1cc(-n2cc(C(F)(F)F)cn2)ccc1C(Nc1ccc(C(=O)NCCC(=O)O)cn1)C1CCCCC1 (single isomer, unassigned) [Example 118, 3-(6-(cyclohexyl(2-methyl-4-(4-(trifluoromethyl)-1H-pyrazol-1-yl)phenyl)methylamino)nicotinamido)propanoic acid]"
8,7810,"CCCC(Oc1ccc(-n2cncn2)cc1)c1ccc(C(=O)NCCC(=O)O)cc1 (racemic) [Example 47, (+/−)-3-(4-(1-(4-(1H-1,2,4-triazol-1-yl)phenoxy)butyl)benzamido)propanoic acid]"
9,1820,"CCCC(Oc1ccc(-n2cc(C(F)(F)F)cn2)cc1)c1ccc(C(=O)NCCC(=O)O)cn1 (racemic) [Example 3, (+/−)-3-(6-(1-(4-(4-(trifluoromethyl)-1H-pyrazol-1-yl)phenoxy)butyl)nicotinamido)propanoic acid]"
10,4140,"CCCC(Oc1ccc(-n2cc(C(F)(F)F)cn2)cn1)c1ccc(C(=O)NCCC(=O)O)cc1 (racemic) [Example 85, (+/−)-3-(4-(1-(5-(4-(trifluoromethyl)-1H-pyrazol-1-yl)pyridine-2-yloxy)butyl)benzamido)propanoic acid]"
11,6890,"CCCC(Oc1ccc(-n2cnc(C)n2)cc1)c1ccc(C(=O)NCCC(=O)O)cc1 (racemic) [Example 46, (+/−)-3-(4-(1-(4-(3-methyl-1H-1,2,4-triazol-1-yl)phenoxy)butyl)benzamido)propanoic acid]"
12,2300,"CCCC(Oc1ccc(-n2cc(C)c(C(F)(F)F)n2)cc1)c1ccc(C(=O)NCCC(=O)O)cc1 (racemic) [Example 72, (+/−)-3-(4-(1-(4-(4-methyl-3-(trifluoromethyl)-1H-pyrazol-1-yl)phenoxy)butyl)benzamido)propanoic acid]"
13,2810,"CCCC(Oc1ccc(-n2ccc(CC)n2)cc1)c1ccc(C(=O)NCCC(=O)O)cc1 (racemic) [Example 42, (+/−)-3-(4-(1-(4-(3-ethyl-1H-pyrazol-1-yl)phenoxy)butyl)benzamido)propanoic acid]"
14,155,"O=C(O)CCNC(=O)c1ccc(C(Nc2ccc(-n3cnc(C(F)(F)F)c3)nc2)C2CCCC2)cc1 (racemic) [Example 8, (+/−)-3-(4-(cyclopentyl(6-(4-(trifluoromethyl)-1H-imidazol-1-yl)pyridine-3-ylamino)methyl)benzamido)propanoic acid]"
15,824,"CCCC(Oc1ccc(-n2ccc(C(C)(C)C)n2)cc1)c1ccc(C(=O)NCCC(=O)O)cc1 (racemic) [Example 21, (+/−)-3-(4-(1-(4-(3-tert-butyl-1-1H-pyrazol-1-yl)phenoxy)butyl)benzamido)propanoic acid]"

row,Compound,Kb [nM]
1,"CC(C)CC(Oc1ccc(C(=O)NCCC(=O)O)cc1)c1ccc(-n2cnc(C(F)(F)F)c2)cc1 (racemic) [Example 2, (+/−)-3-(4-(3-methyl-1-(4-(4-(trifluoromethyl)-1H-imidazol-1-yl)phenyl)butoxy)benzamido)propanoic acid]",5280
